The nature of series [1]: Pharmacokinetics of halofantrine enantiomers after oral gavage of proliposomal or control suspension. It is filed as in vivo, Sprague-Dawley rats. To be noted: 7 mg/kg oral gavage, rats; for AUC: AUC0-24, mean±SD; for Cmax / Tmax: mean±SD. As to the method:
The pharmacokinetic parameters of the enteric coated proliposomal formulation of halofantrine were evaluated as follows. The proliposomal product was prepared as a suspension in 0.78% methylcellulose. A non-liposomal suspension formulation (control) was prepared by dispersing halofantrine powder in 1% methylcellulose. Sprague-Dawley rats were cannulated at the right jugular vein under halothane anesthesia. After an overnight rest, the rats were given 7 mg/kg of a halofantrine suspension as either the proliposomal (7 rats) or control (6 rats) formulation by oral gavage. Serial blood samples were obtained from the cannula until 48 h post-dose. A stereospecific HPLC assay was used to measure plasma concentration of halofantrine enantiomers. Noncompartmental pharmacokinetic methods were used to determine AUC0-24, Cmax and tmax. Student's unpaired t-test was used to assess significance of differences.

A short description of series [2]: Comparison of preparation methods: absorbance in the aqueous phase (incorporation with the lipid). It is filed as physicochemical. From the text:
(§1) One embodiment of the present invention was compared to a control method for producing pharmaceutical formulations. The control method used in the following examples is disclosed by Ganter in U.S. Pat. No. 5,635,206, herein incorporated by reference, at Example 1, except that the percentage of water used was 5% and 0%. To exemplar drugs which are poorly water soluble were used: glyburide and benzocaine.
(§2) The following tables summarize the protocol used and the results.
Some embodiments of the present invention have one or more of the aforementioned advantages.

Series [3] can be described thus: Comparison of preparation methods: particle size. It is filed as physicochemical.
Description: as §1, §2

Series [4] is described as follows: Comparison of preparation methods: texture of product. The class given is physicochemical. To be noted: 12% drug, 63% lecithin (DMPC).
Description: as §1, §2

The mark [5] stands for this setting: Control: halofantrine powder in 1% methylcellulose.
The mark [6] stands for this setting: Liposome: enteric coated proliposomal formulation.

Like-named read-outs stand apart in the source and are kept apart here. Marks after values point to notes of the source that are not given here.

Turning to `CCCCN(CCCC)CCC(O)c1cc2c(Cl)cc(Cl)cc2c2cc(C(F)(F)F)ccc12` (single isomer, unassigned; (+)) [(+)-HF, halofantrine], in series [1] (setting [5]), the exposure (AUC) was 5.2 ± 0.81^b μg × h/mL, the maximum concentration (Cmax) is given as 391 ± 59.2^b ng/mL and the time to peak (Tmax) was determined as 7.0 ± 2.3 h. For the same compound, the AUC in series [1] (Liposome: enteric coated proliposomal formulation in 0.78% methylcellulose) is given as 7.7 ± 1.8^a,b μg × h/mL. In series [1] (setting [6]), the Cmax was 722 ± 170^a,b ng/mL and the Tmax worked out at 4.1 ± 2.3 h.
As to `CCCCN(CCCC)CCC(O)c1cc2c(Cl)cc(Cl)cc2c2cc(C(F)(F)F)ccc12` (single isomer, unassigned; (-)) [(−)-HF, halofantrine], the AUC in series [1] (Sprague-Dawley, rat, plasma, po, 7 mg/kg, Control: halofantrine powder in 1% methylcellulose, read-out: AUC) was 1.9 ± 0.53 µg·h/mL; in series [1] (Sprague-Dawley, rat, plasma, po, 7 mg/kg, Liposome: enteric coated proliposomal formulation in 0.78% methylcellulose, read-out: AUC), 2.6 ± 0.66 µg·h/mL. For the same compound, the peak concentration (Cmax) is 0.196 ± 0.0423 µg/mL in series [1] (Sprague-Dawley, rat, plasma, po, 7 mg/kg, Control: halofantrine powder in 1% methylcellulose, read-out: Cmax) and 0.36 ± 0.0805 µg/mL in series [1] (Sprague-Dawley, rat, plasma, po, 7 mg/kg, Liposome: enteric coated proliposomal formulation, read-out: Cmax). The time of peak concentration (Tmax) in series [1] (Sprague-Dawley, rat, plasma, po, 7 mg/kg, Control: halofantrine powder in 1% methylcellulose, read-out: Tmax) was found to be 4.6 ± 2.1 h; in series [1] (Sprague-Dawley, rat, plasma, po, 7 mg/kg, Liposome: enteric coated proliposomal formulation, read-out: Tmax), 4 ± 1.3 h.
For `CCOC(=O)c1ccc(N)cc1` [Benzocaine, benzocaine], the figures for the Absorbance in series [2] (Applicant's Method), in series [2] (Control Method With 0% Water) and in series [2] (Control Method With 5% Water) were 3.7377, 3.6130 and 3.6030, respectively. In addition, the “Particle Size” value in series [3] (Applicant's Method) is listed as 9.163 μm; in series [3] (Control Method With 0% Water), 3.830 μm; in series [3] (Control Method With 5% Water), 1.190 μm. Also, the Texture result in series [4] (Applicant's Method) is reported as “Powder”; in series [4] (Control Method With 0% Water), “Clear Solution”; in series [4] (Control Method With 5% Water), “Clear Solution”.
For the compound `COc1ccc(Cl)cc1C(=O)NCCc1ccc(S(=O)(=O)NC(=O)NC2CCCCC2)cc1` [Glyburide, glyburide], the Absorbance is recorded as 1.9446 in series [2] (Applicant's Method), 3.9141 in series [2] (Control Method With 0% Water) and 3.8177 in series [2] (Control Method With 5% Water). Besides, the “Particle Size” value was 8.638 μm in series [3] (Applicant's Method), 5.978 μm in series [3] (Control Method With 0% Water) and 2.544 μm in series [3] (Control Method With 5% Water). For the same compound, the Texture entry was “Powder” in series [4] (Applicant's Method), “Milky” in series [4] (Control Method With 0% Water) and “Milky” in series [4] (Control Method With 5% Water).

As a reminder, the AUC is concentration integrated over time. The Cmax is the maximum level reached in the sampled fluid or tissue. In general, Tmax refers to the time at which the peak concentration occurs.

Source of the values: patent US8658202B2, “Coated drug delivery formulations” (Western University of Health Sciences, priority 2001, dated 2014).
